From article PMC9065794 (RSC Advances, 2019) come the findings set out here.

The structures appear in SMILES notation.

Assay [1] has as its target T1, equine serum butyrylcholinesterase (EqBuChE) (Equus caballus, UniProt P81908). The experiment in a line: Anticholinesterase activity assay. It is filed as biochemical, horse.
Assay [2] deals with T2, electric eel acetylcholinesterase (EeAChE) (Electrophorus electricus, UniProt O42275). The experiment in a line: Anticholinesterase activity assay. Type of assay: biochemical.
In assay [3] the target is T2, electric eel acetylcholinesterase (EeAChE). The experiment in a line: Enzymatic kinetic study. Type of assay: biochemical.
Assay [4] addresses T1, equine serum butyrylcholinesterase (EqBuChE). The experiment in a line: Enzymatic kinetic study. Type of assay: biochemical, horse.

T2 sequence (O42275 24-633): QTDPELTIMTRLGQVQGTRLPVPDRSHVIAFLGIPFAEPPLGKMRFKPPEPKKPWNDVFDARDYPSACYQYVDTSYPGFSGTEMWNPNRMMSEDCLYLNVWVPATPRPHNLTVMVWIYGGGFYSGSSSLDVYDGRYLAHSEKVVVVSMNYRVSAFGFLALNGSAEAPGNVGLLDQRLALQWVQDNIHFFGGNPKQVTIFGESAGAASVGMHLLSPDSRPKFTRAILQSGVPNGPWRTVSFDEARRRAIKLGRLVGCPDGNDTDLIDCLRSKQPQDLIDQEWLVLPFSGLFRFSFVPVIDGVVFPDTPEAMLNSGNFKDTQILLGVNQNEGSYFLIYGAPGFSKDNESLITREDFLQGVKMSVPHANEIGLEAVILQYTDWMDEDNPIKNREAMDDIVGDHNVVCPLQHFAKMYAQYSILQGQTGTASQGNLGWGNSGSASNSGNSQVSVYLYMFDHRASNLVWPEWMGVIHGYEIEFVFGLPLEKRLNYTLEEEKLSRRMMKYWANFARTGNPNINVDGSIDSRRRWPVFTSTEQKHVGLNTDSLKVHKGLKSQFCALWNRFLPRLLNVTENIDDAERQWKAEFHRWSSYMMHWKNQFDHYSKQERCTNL
T1 sequence (P81908 whole entry): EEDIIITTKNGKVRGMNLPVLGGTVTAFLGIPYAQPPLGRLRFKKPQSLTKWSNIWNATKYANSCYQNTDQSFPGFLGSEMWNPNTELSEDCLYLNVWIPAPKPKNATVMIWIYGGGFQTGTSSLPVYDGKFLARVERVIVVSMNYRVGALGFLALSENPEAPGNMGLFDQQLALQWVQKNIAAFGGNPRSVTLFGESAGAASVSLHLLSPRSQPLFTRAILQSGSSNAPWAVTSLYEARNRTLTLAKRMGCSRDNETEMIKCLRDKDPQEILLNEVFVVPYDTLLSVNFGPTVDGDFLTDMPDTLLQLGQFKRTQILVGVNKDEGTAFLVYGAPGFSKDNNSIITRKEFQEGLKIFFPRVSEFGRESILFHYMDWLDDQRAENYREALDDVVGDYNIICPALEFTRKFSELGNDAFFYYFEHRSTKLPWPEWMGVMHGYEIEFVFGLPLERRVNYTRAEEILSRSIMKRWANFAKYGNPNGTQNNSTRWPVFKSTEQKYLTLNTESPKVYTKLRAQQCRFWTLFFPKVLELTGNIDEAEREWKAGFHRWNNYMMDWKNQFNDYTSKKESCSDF

Broadly, the inhibition is how much of the control response was suppressed. For `Nc1nc(-c2ccccc2)n(-c2ccccc2)n1` [Compound 6a, 1,5-Diphenyl-1,2,4-triazol-3-amine], the “cholinesterase inhibition (BuChE), in words” value in assay [1] (at 30 μM) is listed as “no significant cholinesterase inhibition”. Besides, the inhibition at 30 µM in assay [1] (read-out: BuChE inhibition (class NA in IC50 column)) and in assay [2] (read-out: AChE inhibition (class NA in IC50 column)) was less than 20% throughout. Moreover, the “cholinesterase inhibition (AChE), in words” value in assay [2] (at 30 μM) was “no significant cholinesterase inhibition”.
With `c1ccc(CN2CCN(CCCNc3nc(-c4ccccc4)n(-c4ccccc4)n3)CC2)cc1` [Compound 13a, N-(3-(4-benzylpiperazin-1-yl)propyl)-1,5-diphenyl-1H-1,2,4-triazol-3-amine], in assay [3], the “type of inhibition, AChE” value is “mixed-type inhibition”. In addition, in assay [4], the “type of inhibition, BuChE” value is on record as “mixed-type inhibition”.
In general, IC50 refers to the concentration needed to halve the response being measured. As to `c1ccc(CN2CCN(CCCCNc3nc(-c4ccccc4)n(-c4ccccc4)n3)CC2)cc1` [Compound 13b, N-(4-(4-benzylpiperazin-1-yl)butyl)-1,5-diphenyl-1H-1,2,4-triazol-3-amine], the 50% inhibitory concentration (IC50) in assay [1] stood at 1630 ± 111 nM; in assay [2], 3790 ± 61 nM.
As to `c1ccc(CN2CCN(CCCCCNc3nc(-c4ccccc4)n(-c4ccccc4)n3)CC2)cc1` [Compound 13c, N-(5-(4-benzylpiperazin-1-yl)pentyl)-1,5-diphenyl-1H-1,2,4-triazol-3-amine], the IC50 stood at 1650 ± 59 nM in assay [1] and 11000 ± 251 nM in assay [2].
Consider `c1ccc(CN2CCN(CCCCCCNc3nc(-c4ccccc4)n(-c4ccccc4)n3)CC2)cc1` [Compound 13d, N-(6-(4-benzylpiperazin-1-yl)hexyl)-1,5-diphenyl-1H-1,2,4-triazol-3-amine], for which the IC50 in assay [1] stood at 2210 ± 68 nM; in assay [2], 5220 ± 188 nM.
